Where a SMILES comes first, the peptide text is derived from it.
Experiments:
[1] = test system: carbapenem-resistant (CRE) A. baumannii; conditions: cited from earlier work
From the text: A wealth of CαAMPs have been identified from the venom glands of various scorpion species. Among these peptides, the members of short cationic AMP family are a group of cationic α-helical peptides with 17 to 19 residues, including Ctriporin [17], Mucroporin [18], Imcroporin [19], Stigmurin [20], TsAP-1 and TsAP-2 [21], AamAP1 and AamAP2 [22], and BmKb1 and BmKb2 [23]. Some peptides from this family were reported to show antimicrobial activity against methicillin-resistant S. aureus. We identified Lausporin-2 from the venom of Liocheles au ...

E. faecium 898 = assay: MIC, broth dilution, clinical isolate; type: cell-based; conditions: MDR clinical isolate
Outline: (§1)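 Following CLSI broth dilution, mid-growth-phase bacteria grown in Mueller–Hinton broth at 37 °C were diluted to 5 × 10^5 CFU/mL. They were exposed to peptides at 1–64 μg/mL in two-fold steps, with at least three repeats.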

E. coli 2678 = assay: MIC, broth dilution, clinical isolate; type: cell-based; conditions: ESBL clinical isolate
Outline: as §1

A. baumannii 19618 = assay: MIC, broth dilution, clinical isolate; type: cell-based; conditions: CRE/MDR clinical isolate
Outline: as §1

P. aeruginosa 9014 = assay: MIC, broth dilution, clinical isolate; type: cell-based; conditions: CRE/MDR clinical isolate
Outline: as §1

S. epidermidis 9092 = assay: MIC, broth dilution, clinical isolate; type: cell-based; conditions: MRSE clinical isolate
Outline: as §1

S. aureus 891 = assay: MIC, broth dilution, clinical isolate; type: cell-based; conditions: MRSA clinical isolate
Outline: as §1

A. baumannii 19295 = assay: MIC, broth dilution, clinical isolate; type: cell-based; conditions: CRE/MDR clinical isolate
Outline: as §1

[2] = broth dilution (CLSI), MHB, 5 × 10^5 CFU/mL, 37 °C, 16–20 h, OD630

For CC[C@H](C)[C@H](NC(=O)[C@H](C)NC(=O)CNC(=O)[C@@H]1CCCN1C(=O)[C@@H](NC(=O)[C@H](CC(C)C)NC(=O)CNC(=O)[C@H](Cc1c[nH]c2ccccc12)NC(=O)[C@H](CC(C)C)NC(=O)[C@@H](N)Cc1ccccc1)[C@@H](C)CC)C(=O)N[C@@H](CO)C(=O)N[C@@H](C)C(=O)N[C@H](C(=O)N[C@H](C(=O)N[C@@H](CO)C(=O)N[C@@H](CC(C)C)C(=O)N[C@H](C(=O)N[C@@H](CCCCN)C(=O)N[C@@H](CCCCN)C(N)=O)[C@@H](C)CC)[C@@H](C)O)C(C)C [Ctriporin] (H-FLWGLIPGAISAVTSLIKK-NH2; N-terminus assumed), the “antimicrobial activity against carbapenem-resistant (CRE) A. baumannii” value [1] is listed as “moderate antimicrobial activity”, the MICs (E. faecium 898; [2]) is listed as 16 µg/mL and the “MICs” value (E. faecium 898; value in parentheses) is listed as 8.0 µM. For the same compound, the MICs (E. coli 2678; [2]) was 64 µg/mL, the “MICs” value (E. coli 2678; value in parentheses) was 31.8 µM and the MICs (A. baumannii 19618; [2]) was 32 µg/mL. The “MICs” value (A. baumannii 19618; value in parentheses) was 15.9 µM, the MICs (P. aeruginosa 9014; [2]) was over 64 µg/mL and the “MICs” value (P. aeruginosa 9014; value in parentheses) was over 31.8 µM. The MICs (S. epidermidis 9092; [2]) was 8 µg/mL, the “MICs” value (S. epidermidis 9092; value in parentheses) was 4.0 µM and the MICs (S. aureus 891; [2]) was 16 µg/mL. For the same compound, the “MICs” value (S. aureus 891; value in parentheses) was 8.0 µM, the MICs (A. baumannii 19295; [2]) was 32 µg/mL and the “MICs” value (A. baumannii 19295; value in parentheses) was 15.9 µM.

From publication PMC10974533, “Cationicity Enhancement on the Hydrophilic Face of Ctriporin Significantly Reduces Its Hemolytic Activity and Improves the Antimicrobial Activity against Antibiotic-Resistant ESKAPE Pathogens” (Toxins, 2024)
